Data taken from the supplement of paper PMC11061612.

Key:
[1] = compound: CC1=CN2[C@@H](C1)C=NC3=CC(=C(C=C3C2=O)OC)OCCCCCOC4=C(C=C5C(=C4)N=C[C@@H]6CC(=CN6C5=O)C)OC [SG3199]; settings: max 0.001 µM
Summary of the method: (§1)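 In 1536-well plates, cancer cell lines in 7.5 μl DMEM/F12 or RPMI with 10% FBS spent 24 hours at 37°C and 5% CO2 and were then dosed for 72 hours with final DMSO typically 0.2%. Viability was read by CellTiter-Glo 2.0 luminescence and scaled between blank-well and DMSO-well means. The single-agent IC50 was fitted from dose responses using a logistic curve in a non-linear mixed effects model, and that logistic curve had two parameters.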

[2] = compound: C[C@@H](Nc1cc(F)cc(F)c1)c1cc(C(=O)N(C)C)cc2c(=O)cc(N3CCOCC3)oc12 [AZD8186]; settings: max 3 µM
Summary of the method: as §1

[3] = compound: CCN(CCO)CCCOc1ccc2c(Nc3cc(CC(=O)Nc4cccc(F)c4)[nH]n3)ncnc2c1 [AZD2811]; settings: max 1 µM
Summary of the method: as §1

[4] = compound: Cc1c2c(nn1C)CSCc1cc(n(C)n1)CSc1cc(c3ccccc3c1)OCCCc1c(C(=O)O)n(C)c3c-2c(Cl)ccc13 [AZD5991]; settings: max 1 µM
Summary of the method: as §1

[5] = compound: C[C@@H]1COCCN1C2=NC(=NC(=C2)C3(CC3)[S@](=N)(=O)C)C4=C5C=CNC5=NC=C4 [AZD6738]; settings: max 10 µM
Summary of the method: as §1

[6] = compound: COc1cc2ncnc(Nc3ccc(F)c(Cl)c3)c2cc1OCCCN1CCOCC1 [Gefitinib]; settings: max 10 µM
Summary of the method: as §1

[7] = compound: CN(CC[C@H](CSC1=CC=CC=C1)NC2=C(C=C(C=C2)S(=O)(=O)NC(=O)C3=CC=C(C=C3)N4CCC(CC4)[C@H](C5=CC=CC=C5C6=CC=C(C=C6)Cl)O)S(=O)(=O)C(F)(F)F)CCO [AZD4320]; settings: max 1 µM
Summary of the method: as §1

[8] = compound: COc1cccc(OCCCN)c1-c1cc(Nc2cnc(C#N)cn2)n[nH]1 [Prexasertib]; settings: max 1 µM
Summary of the method: as §1

[9] = compound: CC1=C(C(=CC=C1)Cl)NC(=O)C2=CN=C(S2)NC3=CC(=NC(=N3)C)N4CCN(CC4)CCO [Dasatinib]; settings: max 2 µM
Summary of the method: as §1

[10] = compound: CS(=O)(=O)CCNCc1ccc(-c2ccc3ncnc(Nc4ccc(OCc5cccc(F)c5)c(Cl)c4)c3c2)o1 [Lapatinib]; settings: max 10 µM
Summary of the method: as §1

[11] = compound: CC(C)n1c(=O)n(C)c2cnc3cc(F)c(-c4ccc(OCCCN5CCCCC5)nc4)cc3c21 [AZD1390]; settings: max 0.3 µM
Summary of the method: as §1

[12] = compound: CN(C)CCCOc1ccc(-c2ccc3ncc4c(c3c2)n(C2CCOCC2)c(=O)n4C)cn1 [AZD0156]
Summary of the method: as §1

[13] = compound: C[C@@H](Oc1cc(-c2cnn(C3CCNCC3)c2)cnc1N)c1c(Cl)ccc(F)c1Cl [Crizotinib]; settings: max 10 µM
Summary of the method: as §1

[14] = compound: C=CCn1c(=O)c2cnc(Nc3ccc(N4CCN(C)CC4)cc3)nc2n1-c1cccc(C(C)(C)O)n1 [AZD1775]
Summary of the method: as §1

[15] = compound: CC(=O)c1c(C)c2cnc(Nc3ccc(N4CCNCC4)cn3)nc2n(C2CCCC2)c1=O [Palbociclib]; settings: max 10 µM
Summary of the method: as §1

[16] = compound: O=C(c1cc(Cc2n[nH]c(=O)c3ccccc23)ccc1F)N1CCN(C(=O)C2CC2)CC1 [Olaparib]; settings: max 10 µM
Summary of the method: as §1

[17] = compound: COc1cccc2c1C(=O)c1c(O)c3c(c(O)c1C2=O)C[C@@](O)(C(=O)CO)C[C@@H]3O[C@H]1C[C@H](N)[C@H](O)[C@H](C)O1 [Doxorubicin]; settings: max 1 µM
Summary of the method: as §1

[18] = compound: Cc1nc(-c2cn3c(n2)-c2ccc(-c4cnn(C(C)(C)C(N)=O)c4)cc2OCC3)n(C(C)C)n1 [Taselisib]; settings: max 10 µM
Summary of the method: as §1

[19] = compound: Cc1cc2ncnn2cc1Nc1ncc2c(n1)n(C1CCOCC1)c(=O)n2C [AZD7648]; settings: max 10 µM
Summary of the method: as §1

[20] = compound: CC1(C)CCC(CN2CCN(c3ccc(C(=O)NS(=O)(=O)c4ccc(NCC5CCOCC5)c([N+](=O)[O-])c4)c(Oc4cnc5[nH]ccc5c4)c3)CC2)=C(c2ccc(Cl)cc2)C1 [Venetoclax]; settings: max 1 µM
Summary of the method: as §1

[21] = compound: COc1nnc2ccc(N3CCC(c4ccc(OCCN5CCN(C)C(=O)[C@H]5C)cc4)CC3)nn12 [AZD5153]; settings: max 1 µM
Summary of the method: as §1

[22] = compound: COc1cc(Nc2ncc3c(n2)-c2ccc(Cl)cc2C(c2c(F)cccc2OC)=NC3)ccc1C(=O)O [Alisertib]; settings: max 10 µM
Summary of the method: as §1

[23] = compound: CCc1c2c(nc3ccc(O)cc13)-c1cc3c(c(=O)n1C2)COC(=O)[C@]3(O)CC [SN-38]; settings: max 0.3 µM
Summary of the method: as §1

[24] = compound: C1CN(CCC1(C(=O)N[C@@H](CCO)C2=CC=C(C=C2)Cl)N)C3=NC=NC4=C3C=CN4 [Capivasertib]; settings: max 10 µM
Summary of the method: as §1

[25] = compound: CC(=O)Nc1cccc(-n2c(=O)n(C3CC3)c(=O)c3c(Nc4ccc(I)cc4F)n(C)c(=O)c(C)c32)c1 [Trametinib]; settings: max 1 µM
Summary of the method: as §1

[26] = compound: Cn1cnc2c(F)c(Nc3ccc(Br)cc3Cl)c(C(=O)NOCCO)cc21 [Selumetinib]; settings: max 10 µM
Summary of the method: as §1

[27] = compound: C[C@@H](c1ccc2nccn2c1)n1nnc2ncc(-c3cnn(C)c3)nc21 [Savolitinib]; settings: max 1 µM
Summary of the method: as §1

[28] = compound: NC1(c2ccc(-c3nc4ccn5c(=O)[nH]nc5c4cc3-c3ccccc3)cc2)CCC1 [MK-2206]; settings: max 10 µM
Summary of the method: as §1

Cell Line | IC50, cell viability 72 h [1] [µM] | IC50, cell viability 72 h [2] [µM] | IC50, cell viability 72 h [3] [µM] | IC50, cell viability 72 h [4] [µM] | IC50, cell viability 72 h [5] [µM] | IC50, cell viability 72 h [6] [µM] | IC50, cell viability 72 h [7] [µM] | IC50, cell viability 72 h [8] [µM] | IC50, cell viability 72 h [9] [µM] | IC50, cell viability 72 h [10] [µM] | IC50, cell viability 72 h [11] [µM] | IC50, cell viability 72 h ([12]; max 3 µM) [µM] | IC50, cell viability 72 h [13] [µM] | IC50, cell viability 72 h ([14]; max 3 µM) [µM] | IC50, cell viability 72 h [15] [µM] | IC50, cell viability 72 h [16] [µM] | IC50, cell viability 72 h [17] [µM] | IC50, cell viability 72 h [18] [µM] | IC50, cell viability 72 h [19] [µM] | IC50, cell viability 72 h [20] [µM] | IC50, cell viability 72 h [21] [µM] | IC50, cell viability 72 h [22] [µM] | IC50, cell viability 72 h [23] [µM] | IC50, cell viability 72 h [24] [µM] | IC50, cell viability 72 h [25] [µM] | IC50, cell viability 72 h [26] [µM] | IC50, cell viability 72 h [27] [µM] | IC50, cell viability 72 h [28] [µM] | IC50, cell viability 72 h ([12]; max 1 µM) [µM] | IC50, cell viability 72 h ([14]; max 1 µM) [µM]
MES-SA (Other Solid Carcinomas) | > 0.001 | > 3 | > 1 | > 1 | > 10 | > 10 | > 1 | 0.0801 | > 2 | > 10 | > 0.3 | > 3 | > 10 | 0.707 | > 10 | > 10 | 0.268 | 1.18 | > 10 | > 1 | > 1 | 0.856 | 0.0282 | > 10 | > 1 | > 10 | > 1 | – | – | –
NCI-H1688 (Small Cell Lung Carcinoma) | > 0.001 | > 3 | > 1 | > 1 | > 10 | > 10 | > 1 | 0.533 | > 2 | > 10 | > 0.3 | > 3 | > 10 | 2.54 | > 10 | > 10 | > 1 | 8.31 | > 10 | > 1 | > 1 | > 10 | > 0.3 | > 10 | > 1 | > 10 | > 1 | > 10 | – | –
PA-TU-8902 (Pancreatic Carcinoma) | > 0.001 | > 3 | > 1 | > 1 | > 10 | > 10 | > 1 | 0.693 | > 2 | > 10 | > 0.3 | > 3 | > 10 | > 3 | > 10 | > 10 | > 1 | 3.55 | > 10 | > 1 | > 1 | > 10 | > 0.3 | > 10 | > 1 | > 10 | > 1 | > 10 | – | –
RCC10RGB (Kidney Carcinoma) | > 0.001 | 1.01 | > 1 | > 1 | > 10 | 7.99 | > 1 | 0.851 | 0.435 | > 10 | > 0.3 | > 3 | > 10 | 2.62 | > 10 | > 10 | > 1 | 3.25 | > 10 | > 1 | > 1 | 3.46 | 0.101 | > 10 | 0.753 | > 10 | > 1 | – | – | –
SKN-3 (Head and Neck Carcinoma) | > 0.001 | > 3 | > 1 | > 1 | > 10 | > 10 | > 1 | 0.38 | > 2 | > 10 | > 0.3 | > 3 | > 10 | 1.53 | > 10 | > 10 | > 1 | 9.18 | > 10 | > 1 | > 1 | > 10 | 0.251 | > 10 | > 1 | > 10 | > 1 | > 10 | – | –
SNU-61 (Colorectal Carcinoma) | > 0.001 | > 3 | > 1 | > 1 | > 10 | > 10 | > 1 | > 1 | > 2 | > 10 | > 0.3 | – | > 10 | – | > 10 | > 10 | > 1 | > 10 | > 10 | > 1 | > 1 | > 10 | > 0.3 | > 10 | 0.529 | > 10 | > 1 | – | > 1 | > 1
TYK-nu (Ovarian Carcinoma) | > 0.001 | > 3 | > 1 | > 1 | 5.37 | > 10 | > 1 | 0.0572 | > 2 | > 10 | > 0.3 | > 3 | > 10 | 0.763 | > 10 | > 10 | > 1 | > 10 | > 10 | > 1 | 0.28 | > 10 | 0.0108 | > 10 | 0.301 | 4.36 | > 1 | > 10 | – | –
U-118-MG (Low Grade Glioma) | > 0.001 | > 3 | > 1 | > 1 | > 10 | > 10 | > 1 | 0.188 | > 2 | > 10 | > 0.3 | > 3 | > 10 | 2.74 | > 10 | > 10 | > 1 | 6.1 | > 10 | > 1 | > 1 | > 10 | 0.0141 | 8.88 | > 1 | > 10 | > 1 | – | – | –
